US20250034106A1, “3-CYCLOAMINO-INDOLE COMPOUNDS AS SEROTONERGIC AGENTS USEFUL FOR THE TREATMENT OF DISORDERS RELATED THERETO” (Mindset Pharma Inc., priority 2021, published 2025)
Read-outs that look alike come from different tables or passages of the source.

How the values were obtained:
[1] = target: human 5-HT2A (h5-HT2A) receptor (Homo sapiens (Human), UniProt P28223); experiment: FLIPR assay, human 5-HT2A, agonist mode; assay type: cell-based; details: FLIPR calcium assay
Protocol: 4. […] Vortexed vigorously for 1-2 minutes.
8. 3×compound in assay buffer was prepared: a. Reference compounds were diluted to required concentration with DMSO. […] Serial dilutions were performed; c.
ii. Calculated the percentage activation by using following equation:
% Activation=(RFU compound−RFU low control)/(RFU top concentration of reference agonist−RFU low control)×100%

[2] = target: T1, human 5-HT2A (Homo sapiens (Human), UniProt P28223); experiment: Human 5-HT2A radioligand binding assay ([3H]-ketanserin); details: competition with [3H]-ketanserin; read-out: h5-HT2A IC50
[3] = DMT and 5-MeO-DMT consumed parenterally; cited from earlier work
[4] = target: T1, human 5-HT2A; details: cited from earlier work
[5] = cited from earlier work

SMILES	EC50 [1]	IC50 [2]	duration of action / effects [3]	further results
[2H]c1[nH]c2c([2H])c([2H])c([2H])c([2H])c2c1C1CCNCC1 [Compound 1-1, 3-(piperidin-4-yl)-1H-indole-2,4,5,6,7-d5]	1 to 10 µM	0.5 to 10 µM	–	–
[2H]c1[nH]c2c([2H])c([2H])c([2H])c([2H])c2c1C1CCN(C)C1 (stereo not drawn) [Compound 1-32, 3-(1-Methylpyrrolidin-3-yl)-1H-indole-2,4,5,6,7-d5]	> 10 µM	< 0.5 µM	–	–
[2H]c1[nH]c2c([2H])c([2H])c([2H])c([2H])c2c1C1CC([2H])([2H])N(C)C1([2H])[2H] (stereo not drawn) [Compound 1-44, 3-(1-Methylpyrrolidin-3-yl-2,2,5,5-d4)-1H-indole-2,4,5,6,7-d5]	> 10 µM	< 0.5 µM	–	–
[2H]C([2H])([2H])N1CCC(c2c[nH]c3ccccc23)C1 (stereo not drawn) [Compound 1-48]	–	0.5 to 10 µM	–	–
[2H]C1([2H])CC(c2c[nH]c3ccc(OC)cc23)C([2H])([2H])N1C (stereo not drawn) [Compound 1-54, 5-Methoxy-3-(1-methylpyrrolidin-3-yl-2,2,5,5-d4)-1H-indole]	–	0.5 to 10 µM	–	–
COc1ccc2[nH]cc(CCN(C)C)c2c1 [Compound 5-MeO-DMT, 5-methoxy-N,N-dimethyltryptamine]	–	–	less than 1 h	–
CN(C)CCc1c[nH]c2ccccc12 [DMT, N,N-dimethyltryptamine]	–	< 0.5 µM	less than 1 h	binding affinity 5-HT2A [4]: 0.237 µM
CN(C)CCc1c[nH]c2cccc(OP(=O)(O)O)c12 [psilocybin, 4-phosphoryloxy-N,N-dimethyltrypatmine]	–	–	5 to 8 h	abstinence rate ([5]; 12 months follow-up): 67%; abstinence rate ([5]; six months follow-up): 80%
